Laboratory results reported in ChEMBL document CHEMBL5329153, “Is structural hybridization invoking new dimensions for antimalarial drug discovery research?” (RSC Med Chem, 2023).
≈ marks a conversion by molar mass, not a printed value.

How the values were obtained:
Plasmodium falciparum [1] = test: Antimalarial activity against Plasmodium falciparum 3D7 assessed as parasitic growth inhibition measured after 42 hrs by [3H]hypoxanthine incorporation assay; assay type: functional, organism-based
Plasmodium falciparum [2] = test: Antimalarial activity against Chloroquine sensitive Plasmodium falciparum 3D7 assessed as parasitic growth inhibition measured after 3 days by ELISA assay; assay type: functional, organism-based; conditions: 3D7, 72 h
Plasmodium falciparum [3] = test: Antimalarial activity against Chloroquine resistant Plasmodium falciparum Dd2 assessed as parasitic growth inhibition measured after 3 days by ELISA assay; assay type: functional, organism-based; conditions: Dd2, 72 h
Plasmodium falciparum [4] = test: Antimalarial activity against Chloroquine sensitive Plasmodium falciparum RKL-2 assessed as parasitic growth inhibition measured after 36 to 40 hrs by Giemsa staining based assay; assay type: functional, organism-based
Plasmodium falciparum [5] = test: Antimalarial activity against Chloroquine sensitive Plasmodium falciparum RKL-9 assessed as parasitic growth inhibition measured after 36 to 40 hrs by Giemsa staining based assay; assay type: functional, organism-based
Plasmodium falciparum [6] = test: Antimalarial activity against Chloroquine resistant Plasmodium falciparum assessed as parasitic growth inhibition by microscopic anlaysis; assay type: functional, organism-based
Plasmodium falciparum [7] = test: Antimalarial activity against Chloroquine-pyrimethamine resistant Plasmodium falciparum W2 assessed as parasitic growth inhibition measured after 48 hrs; assay type: functional, organism-based; conditions: W2, 48 h
Plasmodium falciparum [8] = test: Antimalarial activity against Chloroquine-pyrimethamine sensitive Plasmodium falciparum D6 assessed as parasitic growth inhibition measured after 48 hrs; assay type: functional, organism-based; conditions: D6, 48 h
Hemozoin = test: Inhibition of beta-hematin formation
Plasmodium falciparum [9] = test: Antimalarial activity against Chloroquine sensitive Plasmodium falciparum assessed as parasitic growth inhibition; assay type: functional, organism-based
Plasmodium falciparum [10] = test: Antimalarial activity against mefloquine resistant Plasmodium falciparum F32 assessed as parasitic growth inhibition measured after 48 hrs; assay type: functional, organism-based; conditions: F32, 48 h
Plasmodium falciparum [11] = test: Antimalarial activity against mefloquine resistant Plasmodium falciparum Thai assessed as parasitic growth inhibition measured after 48 hrs; assay type: functional, organism-based
Plasmodium falciparum [12] = test: Antimalarial activity against mefloquine resistant Plasmodium falciparum FcB1 assessed as parasitic growth inhibition measured after 48 hrs; assay type: functional, organism-based; conditions: FcB1, 48 h
Plasmodium falciparum [13] = test: Antimalarial activity against mefloquine resistant Plasmodium falciparum K1 assessed as parasitic growth inhibition measured after 48 hrs; assay type: functional, organism-based; conditions: K1, 48 h
Plasmodium falciparum [14] = test: Antimalarial activity against chloroquine resistant Plasmodium falciparum F32 assessed as parasitic growth inhibition measured after 48 hrs; assay type: functional, organism-based; conditions: F32, 48 h
Plasmodium falciparum [15] = test: Antimalarial activity against chloroquine resistant Plasmodium falciparum Thai assessed as parasitic growth inhibition measured after 48 hrs; assay type: functional, organism-based
Plasmodium falciparum [16] = test: Antimalarial activity against chloroquine resistant Plasmodium falciparum FcB1 assessed as parasitic growth inhibition measured after 48 hrs; assay type: functional, organism-based; conditions: FcB1, 48 h
Plasmodium falciparum [17] = test: Antimalarial activity against chloroquine resistant Plasmodium falciparum K1 assessed as parasitic growth inhibition measured after 48 hrs; assay type: functional, organism-based; conditions: K1, 48 h
Plasmodium falciparum [18] = test: Antimalarial activity against chloroquine sensitive Plasmodium falciparum 3D7 assessed as parasitic growth inhibition by SYBR Green I dye based assay; assay type: functional, organism-based
Plasmodium falciparum [19] = test: Antimalarial activity against Chloroquine sensitive Plasmodium falciparum 3D7 assessed as parasitic growth inhibition measured after 24 hrs; assay type: functional, organism-based; conditions: 3D7, 24 h

`COc1ccc2cc3[n+](cc2c1OCc1cn(-c2ccc(S(=O)(=O)Nc4ccc(F)cc4)cc2)nn1)CCc1cc2c(cc1-3)OCO2.[Cl-]` gave an IC50 (Plasmodium falciparum [1]) of 0.15 µg/mL.

Compound `COc1ccc2cc3[n+](cc2c1OCc1cn(-c2ccc(S(=O)(=O)Nc4ccc(Cl)cc4)cc2)nn1)CCc1cc2c(cc1-3)OCO2.[Cl-]` has an IC50 (Plasmodium falciparum [1]) of 0.1 µg/mL.

`COc1cc(NC(C)CCCNC(=O)CCCC(=O)NO)c2ncccc2c1` (stereo unspecified) was tested, and the IC50 (Plasmodium falciparum [2]) was 400 nM and the IC50 (Plasmodium falciparum [3]) was 1900 nM.

`O=C1C(O)=C(NCCNc2ccnc3cc(Cl)ccc23)C(=O)c2ccccc21` gave an IC50 (Plasmodium falciparum [4]) of 391 nM and an IC50 (Plasmodium falciparum [5]) of 684 nM.

Work on `O=C(NNC(=S)Nc1ccccc1)c1cc(-c2c(F)cccc2F)nc2ccc(C(F)(F)F)cc12` yielded an IC50 (Plasmodium falciparum [6]) of 0.19 µg/mL.

`O=C(NNC(=S)Nc1c(F)cccc1F)c1cc(-c2ccccc2Br)nc2c(Cl)cc(C(F)(F)F)cc12` showed an IC50 (Plasmodium falciparum [6]) of 0.36 µg/mL.

In the case of `O=C(NNC(=S)Nc1cc(Cl)cc(Cl)c1)c1cc(-c2ccc(F)cc2F)nc2cc(Cl)c(F)cc12`, the IC50 (Plasmodium falciparum [6]) is reported as 0.17 µg/mL.

For `N=C(N=C(N)N)SCCNc1ccnc2cc(C(F)(F)F)ccc12`, the IC50 (Plasmodium falciparum [7]) was 2.95 µM and the IC50 (Plasmodium falciparum [8]) was 1860 nM.

Work on `COc1cc2c(cc1OC)CC(Nc1ccnc3cc(Cl)ccc13)C2` yielded an IC50 (Hemozoin) of 390 nM.

With `CC1=C(C(=O)Nc2ccc(Br)cn2)C(c2cn(-c3ccccc3)nc2-c2ccc(Cl)cc2)NC(=O)N1` (stereo unspecified) the IC50 (Plasmodium falciparum [9]) was 0.03 µg/mL (≈ 0.0532 µM).

`N=C(N=C(N)N)SCCCCNc1ccnc2cc(C(F)(F)F)ccc12` gave an IC50 (Plasmodium falciparum [7]) of 6.06 µM and an IC50 (Plasmodium falciparum [8]) of 2800 nM.

`O=C1C(O)=C(N2CCN(c3ccnc4cc(Cl)ccc34)CC2)C(=O)c2ccccc21` was tested, and the IC50 (Plasmodium falciparum [4]) was 391 nM and the IC50 (Plasmodium falciparum [5]) was 1090 nM.

Work on `CC.Fc1ccc(Nc2nc(NCCCNc3ccnc4cc(Cl)ccc34)nc(Nc3ccc(F)cc3)n2)cc1` yielded an IC50 (Plasmodium falciparum [4]) of 51.5 µg/mL.

Compound `CC1=C(C(=O)Nc2ccccn2)C(c2cn(-c3ccccc3)nc2-c2ccc(F)cc2)NC(=O)N1` (stereo unspecified) has an IC50 (Plasmodium falciparum [9]) of 0.03 µg/mL (≈ 0.064 µM).

For `C[C@H]1C[C@@H]2C[C@@H]3CC[C@H]4OC(C(F)(F)F)=C(COCCOC(=O)CCC(=O)OC(c5cc(C(F)(F)F)nc6c(C(F)(F)F)cccc56)C5CCCCN5)[C@H](C1)[C@]24OO3` (stereo partly specified), the IC50 (Plasmodium falciparum [10]) was 2.4 nM, the IC50 (Plasmodium falciparum [11]) was 2.4 nM and the IC50 (Plasmodium falciparum [12]) was 2.4 nM. The IC50 (Plasmodium falciparum [13]) was 2.4 nM, the IC50 (Plasmodium falciparum [14]) was 2.4 nM and the IC50 (Plasmodium falciparum [15]) was 2.4 nM. The IC50 (Plasmodium falciparum [16]) was 2.4 nM and the IC50 (Plasmodium falciparum [17]) was 2.4 nM.

`N=C(N=C(N)N)SCCCNc1ccnc2cc(Cl)ccc12` showed an IC50 (Plasmodium falciparum [7]) of 2.31 µM and an IC50 (Plasmodium falciparum [8]) of 1560 nM.

For `COc1cc(NC(C)CCCNC(=O)c2ccc(C(=O)NO)cc2)c2ncccc2c1` (stereo unspecified), the IC50 (Plasmodium falciparum [2]) was 600 nM and the IC50 (Plasmodium falciparum [3]) was 1200 nM.

In the case of `N=C(N=C(N)N)SCCCNc1ccnc2cc(C(F)(F)F)ccc12`, the IC50 (Plasmodium falciparum [7]) is reported as 3.21 µM and the IC50 (Plasmodium falciparum [8]) is reported as 2850 nM.

`CCCN1C(=O)c2ccc3c4c(ccc(c24)C1=O)C(=O)C(CNc1c2ccc(Cl)cc2nc2ccc(OC)cc12)C3=O` was tested, and the IC50 (Plasmodium falciparum [18]) was 3.65 nM.

`Cc1ccc(-c2nn(-c3nc4ccccc4s3)cc2/C=N\c2ccc(Cl)cc2)cc1` showed an EC50 (Plasmodium falciparum [19]) of 1980 nM.

`CC1=C(C(=O)Nc2ccc(Br)cn2)C(c2cn(-c3ccccc3)nc2-c2ccc([N+](=O)[O-])cc2)NC(=O)N1` (stereo unspecified) showed an IC50 (Plasmodium falciparum [9]) of 0.06 µg/mL (≈ 0.104 µM).
